According to patent US10730878B2, “Fused quinoline compounds as PI3K/mTOR inhibitors” (ADVENCHEN PHARMACEUTICALS, LLC, priority 2015, dated 2020):

molecular target: T1, mTor (Homo sapiens, UniProt P42345); test: mTor kinase inhibition, % activity at 0.03 μM (kinases panel screening); assay type: biochemical; details: 0.03 μM compound
T1 construct: purchased Millipore/Merck KGA of Europe (panel screening service)
Excerpt: In vitro kinase inhibition activities included Pi3k and mTor activities can be tested with Millipore/Merck KGA of Europe in their kinases panel screening. Animal antitumor activity testing can be conducted by various cancer xenograft models for a compound of formula I. […]

Compound | mTor % activity @0.03 μM
5-[16-(4-tert-butylphenyl)-12-ethyl-8,11,13,14,16-pentaazatetracyclo[8.6.0.0^2,^7.0^11,^1^5]hexadeca-1(10),2,4,6,8,12,14-heptaen-4-yl]-N-methylpyridin-2-amine | 51%
CCc1nnc2n(-c3ccc(C(C)(C)C#N)cc3)c3c4cc(-c5cnc6[nH]ccc6c5)ccc4ncc3n12 [2-[4-(12-ethyl-4-{(1H-pyrrolo[2,3-b]pyridin-5-yl}-8,11,13,14,16-pentaazatetracyclo-[8.6.0.0^2,^7.0^11,^1^5]hexadec-1(10),2,4,6,8,12,14-heptaen-16-yl)phenyl]-2-methylpropanenitrile] | 29%
COc1ccc(-c2ccc3ncc4c(c3c2)n(-c2ccc(C(C)(C)C)cc2)c2nnc(C)n42)cn1 [2-methoxy-5-pyridine; CH3; CH3, CH3; CH3, 16-(4-tert-butylphenyl)-4-(6-methoxypyridin-3-yl)-12-methyl-8,11,13,14,16-pentaazatetra-cyclo[8.6.0.0^2,^7.0^11,^1^5]hexadeca-1(10), 2,4,6,8,12,14-heptaene] | 97%
C#CC(C)(C)c1ccc(-n2c3c4cc(-c5ccc(OC)nc5)ccc4ncc3n3c(C)nnc23)cc1 [2-methoxy-5-pyridine; CH3; CH3, CH3; CN, 4-(6-methoxypyridin-3-yl)-12-methyl-16-[4-(2-methylbut-3-yn-2-yl)phenyl]8,11,13,14,16-pentaazatetracyclo[8.6.0.0^2,^7.0^11,^1^5]hexadeca-1(10),2,4,6,8,12,14-heptaene] | 98%
COc1ccc(-c2ccc3ncc4c(c3c2)n(-c2ccc(C(C)(C)C)cc2)c2nncn42)cn1 [2-methoxy-5-pyridine; H; CH3, CH3; CH3, 16-(4-tert-butylphenyl)-4-(6-methoxypyridin-3-yl)-8,11,13,14,16-pentaazatetracyclo-[8.6.0.0^2,^7.0^11,^1^5]hexadec-1(10),2,4,6,8,12,14-heptaene] | 15%
CC(C)(C#N)c1ccc(-n2c3c4cc(-c5ccnc6[nH]ccc56)ccc4ncc3n3cnnc23)cc1 [2-methyl-2-[4-(4-{1H-pyrrolo[2,3-b]pyridin-4-yl}-8,11,13,14,16-pentaazatetracyclo-[8.6.0.0^2,^7.0^11,^1^5]hexadeca-1(10),2,4,6,8,12,14-heptaen-16-yl)phenyl]propanenitrile] | 70%
Cc1nnc2n(-c3ccc(C(C)(C)C#N)cc3)c3c4cc(-c5cnc6[nH]ccc6c5)ccc4ncc3n12 [2-methyl-2-[4-(12-methyl-4-{1H-pyrrolo[2,3-b]pyridin-5-yl}-8,11,13,14,16-pentaazatetra-cyclo[8.6.0.0^2,^7.0^11,^1^5]hexadeca-1(10),2,4,6,8,12,14-heptaen-16-yl)phenyl]propanenitrile] | 15%
Cc1nnc2n(-c3ccc(C(C)(C)C)cc3)c3c4cc(-c5cccnc5)ccc4ncc3n12 [3-pyridine; CH3; CH3, CH3; CH3, 16-(4-tert-butylphenyl)-12-methyl-4-(pyridin-3-yl)-8,11,13,14,16-pentaazatetracyclo-[8.6.0.0^2,^7.0^11,^1^5]hexadec-1(10),2,4,6,8,12,14-heptaene] | 88%
CC(C)(C)c1ccc(-n2c3c4cc(-c5cccnc5)ccc4ncc3n3cnnc23)cc1 [3-pyridine; H; CH3, CH3; CH3, 16-(4-tert-butylphenyl)-4-(pyridin-3-yl)-8,11,13,14,16-pentaazatetracyclo[8.6.0.0^2,^7.0^11,^1^5]-hexadeca-1(10), 2,4,6,8,12,14-heptaene] | −4%
C#CC(C)(C)c1ccc(-n2c3c4cc(-c5ccc(OC)nc5)ccc4ncc3n3c(CC)nnc23)cc1 [12-ethyl-4-(6-methoxypyridin-3-yl)-16-[4-(2-methylbut-3-yn-2-yl)phenyl]-8,11,13,14,16-pentaazatetracyclo[8.6.0.0^2,^7.0^11,^1^5]hexadeca-1(10),2,4,6,8,12,14-heptaene] | 69%
CC(C)(C)c1ccc(-n2c3c4cc(-c5cnc6[nH]ccc6c5)ccc4ncc3n3cnnc23)cc1 [16-(4-tert-butylphenyl)-4-{1H-pyrrolo[2,3-b]pyridin-5-yl}-8,11,13,14,16-pentaazatetracyclo-[8.6.0.0^2,^7.0^11,^1^5]hexadeca-1(10), 2,4,6,8,12,14-heptaene] | −15%
Cc1nnc2n(-c3ccc(C(C)(C)C)cc3)c3c4cc(-c5cnc6[nH]ccc6c5)ccc4ncc3n12 [16-(4-tert-butylphenyl)-12-methyl-4-{1H-pyrrolo[2,3-b]pyridin-5-yl}-8,11,13,14,16-pentaaza-tetracyclo[8.6.0.0^2,^7.0^11,^1^5]hexadeca-1(10), 2,4,6,8,12,14-heptaene] | 54%

Results, then the compound that gave them:

mTor % activity @0.03 μM | Compound
8% | 2-amino-N-(5-{16-[4-(1-cyano-1-methylethyl)phenyl]-8,11,13,14,16-pentaazatetra-cyclo[8.6.0.0^2,^7.0^11,^1^5]hexadeca-1(10), 2,4,6,8,12,14-heptaen-4-yl)}pyridin-2-yl)acetamide
102% | 5-[16-(4-tert-butylphenyl)-12-ethyl-8,11,13,14,16-pentaazatetracyclo[8.6.0.0^2,^7.0^11,^1^5]hexadeca-1(10),2,4,6,8,12,14-heptaen-4-yl]-N-[2-(morpholin-4-yl)ethyl]pyridin-2-amine
84% | 5-[16-(4-tert-butylphenyl)-12-ethyl-8,11,13,14,16-pentaazatetracyclo[8.6.0.0^2,^7.0^11,^1^5]hexadeca-1(10),2,4,6,8,12,14-heptaen-4-yl]-N-[2-(pyrrolidin-1-yl)ethyl]pyridin-2-amine
22% | CC(C)(C)c1ccc(-n2c3c4cc(-c5cnc6ccccc6c5)ccc4ncc3n3cnnc23)cc1 [3-quinoline; H; CH3, CH3; CH3, 16-(4-tert-butylphenyl)-4-(quinolin-3-yl)-8,11,13,14,16-pentaazatetracyclo[8.6.0.0^2,^7.0^11,^1^5]-hexadeca-1(10), 2,4,6,8,12,14-heptaene]
21% | C#CC(C)(C)c1ccc(-n2c3c4cc(-c5ccc(N)nc5)ccc4ncc3n3c(CC)nnc23)cc1 [5-pyridin-2-amine; CH2CH3; CH3, CH3; CN, 5-{12-ethyl-16-[4-(2-methylbut-3-yn-2-yl)phenyl]-8,11,13,14,16-pentaazatetracyclo-[8.6.0.0^2,^7.0^11,^1^5]hexadeca-1(10),2,4,6,8,12,14-heptaen-4-yl}pyridin-2-amine]
34% | Cc1nnc2n(-c3ccc(C(C)(C)C)cc3)c3c4cc(-c5ccc(N)nc5)ccc4ncc3n12 [5-pyridin-2-amine; CH3; CH3, CH3; CH3, 5-[16-(4-tert-butylphenyl)-12-methyl-8,11,13,14,16-pentaazatetracyclo[8.6.0.0^2,^7.0^11,^1^5]-hexadeca-1(10), 2,4,6,8,12,14-heptaen-4-yl]pyridin-2-amine]
64% | Cc1nnc2n(-c3ccc(C(C)(C)C#N)cc3)c3c4cc(-c5ccc(N)nc5)ccc4ncc3n12 [5-pyridin-2-amine; CH3; CH3, CH3; CN]
94% | CCc1nnc2n(-c3ccc(C(C)(C)C#N)cc3)c3c4cc(-c5cncnc5)ccc4ncc3n12 [5-pyrimidine; CH2CH3; CH3, CH3; CN, 2-{4-[12-ethyl-4-(pyrimidin-5-yl)-8,11,13,14,16-pentaazatetracyclo[8.6.0.0^2,^7.0^11,^1^5]-hexadeca-1(10),2,4,6,8,12,14-heptaen-16-yl]phenyl}-2-methylpropanenitrile]
104% | Cc1nnc2n(-c3ccc(C(C)(C)C)cc3)c3c4cc(-c5cncnc5)ccc4ncc3n12 [5-pyrimidine; CH3; CH3, CH3; CH3, 16-(4-tert-butylphenyl)-12-methyl-4-(pyrimidin-5-yl)-8,11,13,14,16-pentaazatetracyclo-[8.6.0.0^2,^7.0^11,^1^5]hexadeca-1(10), 2,4,6,8,12,14-heptaene]
90% | Cc1nnc2n(-c3ccc(C(C)(C)C#N)cc3)c3c4cc(-c5cncnc5)ccc4ncc3n12 [5-pyrimidine; CH3; CH3, CH3; CN, 2-methyl-2-{4-[12-methyl-4-(pyrimidin-5-yl)-8,11,13,14,16-pentaazatetracyclo-[8.6.0.0^2,^7.0^11,^1^5]hexadeca-1(10),2,4,6,8,12,14-heptaen-16-yl]phenyl}propanenitrile]
39% | CC(C)(C)c1ccc(-n2c3c4cc(-c5cncnc5)ccc4ncc3n3cnnc23)cc1 [5-pyrimidine; H; CH3, CH3; CH3, 16-(4-tert-butylphenyl)-4-(pyrimidin-5-yl)-8,11,13,14,16-pentaazatetracyclo[8.6.0.0^2,^7.0^11,^1^5]-hexadeca-1(10), 2,4,6,8,12,14-heptaene]
64% | CC(C)(C#N)c1ccc(-n2c3c4cc(-c5cncnc5)ccc4ncc3n3cnnc23)cc1 [5-pyrimidine; H; CH3, CH3; CN, 2-methyl-2-{4-[4-(pyrimidin-5-yl)-8,11,13,14,16-pentaazatetracyclo[8.6.0.0^2,^7.0^11,^1^5]hexadeca-1(10),2,4,6,8,12,14-heptaen-16-yl]phenyl}propanenitrile]
−10% | CC(=O)Nc1ccc(-c2ccc3ncc4c(c3c2)n(-c2ccc(C(C)(C)C#N)cc2)c2nncn42)cn1 [N-(5-{16-[4-(1-cyano-1-methylethyl)phenyl]-8,11,13,14,16-pentaazatetracyclo-[8.6.0.0^2,^7.0^11,^1^5]hexadeca-1(10),2,4,6,8,12,14-heptaen-4-yl}pyridin-2-yl)acetamide]
74% | CC(=O)Nc1ccc(-c2ccc3ncc4c(c3c2)n(-c2ccc(C(C)(C)C#N)cc2)c2nnc(C)n42)cn1 [N-(5-{16-[4-(1-cyano-1-methylethyl)phenyl]-12-methyl-8,11,13,14,16-pentaazatetracyclo-[8.6.0.0^2,^7.0^11,^1^5]hexadeca-1(10),2,4,6,8,12,14-heptaen-4-yl}pyridin-2-yl)acetamide]
